Earlier results in US20060045865A1, “Controlled regional oral delivery” (Spherics, Inc., priority 2004, published 2006).
Where two headings read alike, the source gives them in different places.

Columns and labels:
[1] = not given; remark: listed apart in the source
H. pylori = conditions: pH 5.5

Compound	Solubility in water	Bioavailability ([1]; oral)	other results
1-[(4R,5s)-5-[(2-aminoethyl)amino]-N^2-(10,12-dimethyl-1-oxotetradecyl)-4-hydroxy-L-ornithine]-5-[(3IRI)-3-hydroxy-L-ornithine]pneumocandin B0 diacetate (salt) [Caspofungin acetate]	freely soluble	0%	
Nc1nc2c(ncn2COCCO)c(=O)[nH]1 [Acyclovir, 2-amino-1,9-dihydro-9-[(2-hydroxyethoxy)methyl]-6H-purin-6-one]		10-20%	
NC(=O)N1c2ccccc2C=Cc2ccccc21 [Carbamazepine, 5H-dibenz[b,f]azepine-5-carboxamide]			Bioavailability ([1]; in vivo, po): 89%
C#C[C@]1(O)CC[C@H]2[C@@H]3CCC4=Cc5oncc5C[C@]4(C)[C@H]3CC[C@@]21C [Danazol, 17a-Pregna-2,4-dien-20-yno[2,3-d]-isoxazol-17-ol]			Half-life ([1]; oral administration): 4 to 5 h; Time to peak plasma concentration ([1]; oral dose): ≤ 2 h
NCC1(CC(=O)O)CCCCC1 [Gabapentin]			Bioavailability ([1]; 900 mg dose, given three times a day): ≤ 60%
CC(=O)O[C@H]1C(=O)[C@@]2(C)[C@H]([C@H](OC(=O)c3ccccc3)[C@]3(O)C[C@H](OC(=O)[C@H](O)[C@@H](NC(=O)c4ccccc4)c4ccccc4)C(C)=C1C3(C)C)[C@]1(OC(C)=O)CO[C@@H]1C[C@@H]2O [Paclitaxel]	insoluble		
C=CC[C@@H]1/C=C(\C)C[C@H](C)C[C@H](OC)[C@H]2O[C@@](O)(C(=O)C(=O)N3CCCC[C@H]3C(=O)O[C@H](/C(C)=C/[C@@H]3CC[C@@H](O)[C@H](OC)C3)[C@H](C)[C@@H](O)CC1=O)[C@H](C)C[C@@H]2OC [Tacrolimus]	practically insoluble		Absolute bioavailability ([1]; 5 mg dose taken twice a day): approximately 17%
CC(C)[C@H](N)C(=O)OCCOCn1cnc2c(=O)[nH]c(N)nc21 [Valacyclovir]	greater solubility in water than acyclovir	approximately 50%	
CC[C@H]1OC(=O)[C@H](C)[C@@H](O[C@H]2C[C@@](C)(OC)[C@@H](O)[C@H](C)O2)[C@H](C)[C@@H](O[C@@H]2O[C@H](C)C[C@H](N(C)C)[C@H]2O)[C@](C)(OC)C[C@@H](C)C(=O)[C@H](C)[C@@H](O)[C@]1(C)O [clarithromycin]			Decrease in activity (H. pylori): > 16 fold
